Assay results: ChEMBL document CHEMBL1130684, “Potent, non-thiol inhibitors of farnesyltransferase” (Bioorg Med Chem Lett, 1998)

How the values were obtained:
[1] = target: T1, Protein farnesyltransferase (Homo sapiens, UniProt P49354+P49356); assay: Inhibition of FTase-catalyzed incorporation of [3H]- FPP radioligand into recombinant Ha-Ras by 50% at an enzyme concentration of 1 nM.; type: protein-complex assay
[2] = target: T1, Protein farnesyltransferase; assay: Inhibition of [3H]- FPP incorporation into recombinant Ha-Ras by farnesyl transferase at 10 pM; type: protein-complex assay

**Q.** `CCC(C)[C@@H](CN(CC(=O)N[C@@H](CCSC)C(=O)O)Cc1cccc2ccccc12)NC(=O)CSCc1ccc([N+](=O)[O-])cc1` (some centres not stated) was tested. Which IC50 [1] did it give?
**A.** 6.2 nM

**Q.** For `CCC(C)[C@@H](CN(CC(=O)N[C@@H](CCSC)C(=O)O)Cc1cccc2ccccc12)NC(=O)COCc1ccccc1` (some centres not stated), which IC50 [1] is on record?
**A.** 230 nM

**Q.** For `CCC(C)[C@@H](CN(CC(=O)N[C@@H](CCSC)C(=O)O)Cc1cccc2ccccc12)NC(=O)CSCc1ccc(S(C)(=O)=O)cc1` (some centres not stated), which IC50 [1] is on record?
**A.** 16 nM

**Q.** With `CCC(C)[C@@H](CN(CC(=O)N[C@@H](CCSC)C(=O)O)Cc1ccccc1)NC(=O)CSc1nc[nH]n1` (some centres not stated) as the compound, how does the IC50 [1] read?
**A.** > 10000 nM

**Q.** For `CCC(C)[C@@H](CN(CC(=O)N[C@@H](CCSC)C(=O)O)Cc1cccc2ccccc12)NC(=O)CSCc1cccc([N+](=O)[O-])c1` (some centres not stated), which IC50 [1] is on record?
**A.** 23 nM

**Q.** Which IC50 [1] does the source give for `CCC(C)[C@@H](CN(CC(=O)N[C@@H](CCSC)C(=O)O)Cc1cccc2ccccc12)NC(=O)CSc1ccccc1` (some centres not stated) here?
**A.** 51 nM

**Q.** How did the IC50 [1] turn out when `CCC(C)[C@@H](CN(CC(=O)N[C@@H](CCSC)C(=O)O)Cc1cccc2ccccc12)NC(=O)C[S+]([O-])Cc1ccccc1` (some centres not stated) was run?
**A.** 160 nM

**Q.** Which IC50 [1] does the source give for `CCC(C)[C@@H](CN(CC(=O)N[C@@H](CCSC)C(=O)O)Cc1cccc2ccccc12)NC(=O)CSCc1ccc(C)cc1` (some centres not stated) here?
**A.** 14 nM

**Q.** With `CCC(C)[C@@H](CN(CC(=O)N[C@@H](CCSC)C(=O)O)Cc1cccc2ccccc12)NC(=O)CSCc1ccccc1[N+](=O)[O-]` (some centres not stated) as the compound, how does the IC50 [1] read?
**A.** 86 nM

**Q.** With `CCC(C)[C@@H](CN(CC(=O)N[C@@H](CCSC)C(=O)O)Cc1cccc2ccccc12)NC(=O)CSCc1ccccc1` (some centres not stated) as the compound, how does the IC50 [1] read?
**A.** 36 nM

**Q.** How did the IC50 [1] turn out when `CCC(C)[C@@H](CN(CC(=O)N[C@@H](CCSC)C(=O)O)Cc1cccc2ccccc12)NC(=O)CSCc1ccncc1` (some centres not stated) was run?
**A.** 230 nM

**Q.** With `CCC(C)[C@@H](CN(CC(=O)N[C@@H](CCSC)C(=O)O)Cc1cccc2ccccc12)NC(=O)CSCc1ccc(-c2ccccc2)cc1` (some centres not stated) as the compound, how does the IC50 [1] read?
**A.** 29 nM

**Q.** `CCC(C)[C@@H](CN(CC(=O)N[C@@H](CCSC)C(=O)O)Cc1cccc2ccccc12)NCc1cnc[nH]1` (some centres not stated) was tested. Which IC50 [1] did it give?
**A.** 31 nM

**Q.** How did the IC50 [1] turn out when `CCC(C)[C@@H](CN(CC(=O)N[C@@H](CCSC)C(=O)O)Cc1cccc2ccccc12)NC(=O)CSc1ccncc1` (some centres not stated) was run?
**A.** 17 nM

**Q.** How did the IC50 [1] turn out when `CCC(C)[C@@H](CN(CC(=O)N[C@@H](CCSC)C(=O)O)Cc1cccc2ccccc12)NC(=O)CS(=O)(=O)Cc1ccccc1` (some centres not stated) was run?
**A.** 310 nM

**Q.** For `CCC(C)[C@@H](CN(CC(=O)N[C@@H](CCSC)C(=O)O)Cc1cccc2ccccc12)NC(=O)CN(Cc1ccccc1)C(C)=O` (some centres not stated), which IC50 [1] is on record?
**A.** 70 nM

**Q.** How did the IC50 [1] turn out when `CCC(C)[C@@H](CN(CC(=O)N[C@@H](CCSC)C(=O)O)Cc1cccc2ccccc12)NC(=O)CCCCc1ccccc1` (some centres not stated) was run?
**A.** 230 nM

**Q.** For `CCC(C)[C@@H](CN(CC(=O)N[C@@H](CCSC)C(=O)O)Cc1cccc2ccccc12)NC(=O)CCCc1ccc([N+](=O)[O-])cc1` (some centres not stated), which IC50 [1] is on record?
**A.** 19 nM

**Q.** With `CCC(C)[C@@H](CN(CC(=O)N[C@@H](CCSC)C(=O)O)Cc1cccc2ccccc12)NC(=O)CNCc1ccccc1` (some centres not stated) as the compound, how does the IC50 [1] read?
**A.** 190 nM

**Q.** How did the IC50 [1] turn out when `CCC(C)[C@@H](CN(CC(=O)N[C@@H](CCSC)C(=O)O)Cc1cccc2ccccc12)NC(=O)CSCc1ccc(OC)cc1` (some centres not stated) was run?
**A.** 17 nM

**Q.** For `CCC(C)[C@@H](CN(CC(=O)N[C@@H](CCSC)C(=O)O)Cc1cccc2ccccc12)NC(=O)CSCCc1ccccc1` (some centres not stated), which IC50 [1] is on record?
**A.** 120 nM

**Q.** With `CCC(C)[C@@H](CN(CC(=O)N[C@@H](CCSC)C(=O)O)Cc1cccc2ccccc12)NC(=O)CSCc1ccc(C(F)(F)F)cc1` (some centres not stated) as the compound, how does the IC50 [1] read?
**A.** 37 nM

**Q.** How did the IC50 [1] turn out when `CCC(C)[C@@H](CN(CC(=O)N[C@@H](CCSC)C(=O)O)Cc1cccc2ccccc12)NC(=O)CN(Cc1ccccc1)C(=O)OC(C)(C)C` (some centres not stated) was run?
**A.** 260 nM

**Q.** Which IC50 [1] does the source give for `CCC(C)[C@@H](CN(CC(=O)N[C@@H](CCSC)C(=O)O)Cc1cccc2ccccc12)NC(=O)CSCc1ccc(C#N)cc1` (some centres not stated) here?
**A.** 5.4 nM

**Q.** For `CCC(C)[C@@H](CN(CC(=O)N[C@@H](CCSC)C(=O)O)Cc1cccc2ccccc12)NC[C@@H](N)CS` (some centres not stated), which IC50 [2] is on record?
**A.** 0.123 nM

**Q.** How did the IC50 [1] turn out when `CCC(C)[C@@H](CN(CC(=O)N[C@@H](CCSC)C(=O)O)Cc1ccccc1)NC(=O)CSc1nc2ccccc2[nH]1` (some centres not stated) was run?
**A.** > 10000 nM

**Q.** For `CCC(C)[C@@H](CN(CC(=O)N[C@@H](CCSC)C(=O)O)Cc1ccccc1)NC(=O)CSc1nnc(N)s1` (some centres not stated), which IC50 [1] is on record?
**A.** > 10000 nM
